Assay results: patent publication EP1800684A1, “Novel alkyl phospholipid derivatives and uses thereof” (Zentaris GmbH, priority 2005, dated 2007)
Converted amounts (≈) assume the structure as drawn.

What was measured:
Format in all cases: cell-based
[1] = test system: Candida albicans (ATCC 10231); experiment: Anti-fungal susceptibility test (microdilution), fungus A; details: Candida albicans, ATCC10231, no visible growth after 48 hours at 35° C, read-out: MIC
Method: (§1) The antifungal activities of the test compounds (compounds of the invention and known prior art compounds) were measured according to standard microdilution methods (Cryptococcus/Aspergillus: Ghannoum et al., Journal of Clinical Microbiology 1992, 30 (11): 2881-2886; Candida: Reference method for broth dilution susceptibility testing of yeast: proposed standard, NCCLS document M27-P, National Committee for Clinical Laboratory Standards 1992, Villanova, Pa).
(§2) A serial dilution series starting from 64 µg/mL test compound per well down to 0.125 µg/mL test compound per well was applied for each test compound on each fungus. The MIC of each compound was defined as the concentration which produces no visible growth after 48 hours (Candida) and 72 hours (Cryptococcus, Aspergillus) of culture at 35° C.
(§3) The following fungi were assessed: • A) Candida albicans (ATCC 10231) • B) Candida albicans (ATCC 90028) • C) Candida albicans (strain TS3, Shrikantha et al., Journal of Bacteriology 2000, 182(6):1580-1591) • D) Candida parapsilosis (ATCC 22019) • E) Cryptocoocus neoformans (ATCC 90112) • F) Cryptocoocus neoformans (strain H99; Ganendren et al., Antimicrobial Agents and Chemotherapy, 2004, 48(5):1561-1569) • G) Cryptocoocus gattii (ATCC 32608) • H) Aspergillus fumigatus (ATCC 204305) • I) Aspergillus fumigatus (strain 322-384)

[2] = test system: Candida albicans (ATCC 90028); experiment: Anti-fungal susceptibility test (microdilution), fungus B; details: Candida albicans, ATCC90028, no visible growth after 48 hours at 35° C, read-out: MIC
Method: as §1, §2, §3

[3] = test system: Cryptocoocus neoformans (ATCC 90112); experiment: Anti-fungal susceptibility test (microdilution), fungus E; details: fungus E; no visible growth after 72 hours at 35° C; read-out: MIC
Method: as §1, §2, §3

[4] = test system: Cryptocoocus neoformans (strain H99); experiment: Anti-fungal susceptibility test (microdilution), fungus F; details: fungus F; no visible growth after 72 hours at 35° C; read-out: MIC
Method: as §1, §2, §3

[5] = test system: Cryptocoocus gattii (ATCC 32608); experiment: Anti-fungal susceptibility test (microdilution), fungus G; details: fungus G; no visible growth after 72 hours at 35° C; read-out: MIC
Method: as §1, §2, §3

[6] = test system: Aspergillus fumigatus (strain 322-384); experiment: Anti-fungal susceptibility test (microdilution), fungus I; details: Aspergillus fumigatus, no visible growth after 72 hours at 35° C, read-out: MIC
Method: as §1, §2, §3

[7] = test system: Trypanosoma cruzi (Tulahuan-LACZ amstigotes in PEM); experiment: In vitro drug activity assay, protozoon A (amastigotes in murine peritoneal macrophages, CPRG readout); details: infected macrophages exposed for 3 days
Method: Murine (CD1) peritoneal macrophages were harvested 24 hours after starch induction and dispensed into 96-well plates at a concentration of 4 x 10^5 mL. After 24 hours, the cells were infected with Trypanosoma cruzi Tulahuan LAC-Z amastigotes (grown and cultured according to Buckner et al., Infection and Immunity 1999, 67(1): 403-409). 24 hours later, the infected cells were exposed to the test compounds (compounds of the invention as well as known prior art compounds) for 3 days and 50 µL of 500 µM CPRG-1% Nonidet P-40 was added to each well. The plates were read after 2 to 5 hours at 570 nm (Buckner et al., Antimicrobial Agents and Chemotherapy 1996, 40(11): 2592-2597). ED50 values were calculated with Msxlfit (IDBS).
(§4) The following protozoa were assessed: • A) Trypanosoma cruzi (Tulahuan-LACZ amstigotes in PEM, Lorente SO et al., Antimicrobial agents and chemotherapy 2004, 48(8): 2937-2950; Buckner et al., Infection and Immunity 1999, 67(1): 403-409; Buckner et al., Antimicrobial Agents and Chemotherapy 1996, 40(11): 2592-2597) • B) Trypanosoma brucei rhodesiense (strain STIB900, Lorente SO et al., Antimicrobial agents and chemotherapy 2004, 48(8): 2937-2950; Habtemariam S, BMC Pharmacology 2003, 3:6) • C) Plasmodium falciparum (strain K1, Korsinczky M et al., Antimicrobial agents and chemotherapy 2000, 44(8): 2100-2108; Thaitong S and Beale GH, Trans. R. Soc. Trop. Med. Hyg. 1981, 75: 271-273; Trager W and Jensen JB, Science 1976, 193: 673-675) • D) Plasmodium falciparum (strain 3D7, Mu et al., PLoS Biology 2005, 3(10): e335)

[8] = test system: Plasmodium falciparum (strain K1); experiment: In vitro drug susceptibility assay, protozoon C (3[H]-hypoxanthine method)
Method: (§5) Plasmodium falciparum strain K1 and strain 3D7 parasites were cultured according to Trager W and Jensen JB (Science 1976, 193: 673-675). In vitro drug susceptibility assays with the test compounds were carried out according to Korsinczky M et al. (Antimicrobial agents and chemotherapy 2000, 44(8): 2100-2108) and Fivelman QL et al. (Antimicrobial agents and chemotherapy 2004, 48(11): 4097-4102) using a ^3[H]-hypoxanthine radioisotope method. ED50 values were calculated with Msxlfit (IDBS).
as §4

[9] = test system: Plasmodium falciparum (strain 3D7); experiment: In vitro drug susceptibility assay, protozoon D (3[H]-hypoxanthine method)
Method: as §5, §4

`CCCCCCCCCCCCCCCCOP(=O)([O-])OCC[N+]1(C)CCCCC1` [Compound 2, Phosphoric acid 2-(1-methyl-piperidin-1-yl)-ethyl ester hexadecyl ester] was tested, and the MIC [1] was 1 µg/mL (≈ 2.23 µM), the MIC [2] was 1 µg/mL (≈ 2.23 µM) and the MIC [3] was 1.5 µg/mL (≈ 3.35 µM). The MIC [4] was 1 µg/mL (≈ 2.23 µM), the MIC [5] was 0.75 µg/mL (≈ 1.68 µM) and the MIC [6] was 2 µg/mL (≈ 4.47 µM). For the same molecule, the “ED50 (µg/mL)” value [7] was 0,50 µg/mL, the “ED50 (µg/mL)” value [8] was 19,36 µg/mL and the “ED50 (µg/mL)” value [9] was 2,21 µg/mL.
